Reference: the supplement of paper PMC6965134
± gives the standard deviation of the averaged measurements.

Test: TIMS collisional cross section (CCS, N2) of the lipid ion; higher = larger ion cross section
Conditions: ionization mode: positive, one isomer drawn

SMILES | TIMS collisional cross section (sample type: HeLa) | TIMS collisional cross section (sample type: plasma) | TIMS collisional cross section (sample type: Liver)
CCCCC/C=C\C/C=C\CCCCCCCC(=O)OC[C@@H](COC(=O)CCCCCCC/C=C\CCCCCCC)OC(=O)CCCCCCC/C=C\CCCCCCCC [TG 17:1_18:1_18:2] (ion (formula + adduct): [C56H100O6+NH4] 1+) | 320.8 Å² | 320.6 Å² | –
CCCCCCCC/C=C\CCCCCCCCCCCC(=O)OC[C@@H](COC(=O)CCCCCCCCCCCCCCCCC)OC(=O)CCCCCCCCCCC/C=C\CCCCCCCC [TG 18:0_22:1_22:1] (ion (formula + adduct): [C65H122O6+NH4] 1+) | 350.2 Å² | – | –
[C@]12(CC=C3C[C@@H](O)CC[C@]3(C)[C@@]1([H])CC[C@]1(C)[C@@]([H])([C@@](C)([H])CC[C@@H]3O[C@@]3(C)C)CC[C@@]21[H])[H] [24,25-epoxy-cholesterol] (ion (formula + adduct): [C27H44O2+H] 1+) | 210.4 Å² | 210.5 Å² | 209.6 Å²
CCCCC/C=C\C/C=C\C/C=C\CCCCCCC(=O)OC[C@@H](O)COP(=O)(O)OCCN [LPE 20:3] (ion (formula + adduct): [C25H46NO7P+H] 1+) | 216.8 Å² | 217.3 Å² | 217.2 Å²
CCCCC/C=C\C/C=C\C/C=C\CCCCCCC(=O)OC[C@@H](O)COP(=O)([O-])OCC[N+](C)(C)C [LPC 20:3] (ion (formula + adduct): [C28H52NO7P+H] 1+) | 234.05 ± 2.8 Å² | 232.57 ± 2.1 Å² | 236.2 Å²
CCCCCCCCCCCCCCCC(=O)OC[C@@H](COC(=O)CCCCCCCCCCCCCC)OC(=O)CCCCCCCCCCCCCC [TG 15:0_15:0_16:0] (ion (formula + adduct): [C49H94O6+NH4] 1+) | 308 Å² | – | –
CCCCC/C=C\C/C=C\C/C=C\C/C=C\CCCCCC(=O)OC[C@@H](COC(=O)CCCCCCCCCCCCCCC)OC(=O)CCCCCCC/C=C\CCCCCCCC [TG 16:0_18:1_22:4] (ion (formula + adduct): [C59H104O6+NH4] 1+) | – | 329.9 Å² | –
CC/C=C\C/C=C\C/C=C\C/C=C\CCCCCCC(=O)O[C@H](COCCCCCCCC/C=C\CCCCCC)COP(=O)([O-])OCC[N+](C)(C)C [PC O- 16:1@_20:4] (ion (formula + adduct): [C44H80NO7P+H] 1+) | – | 287.2 Å² | –
CCCCC/C=C\C/C=C\C/C=C\C/C=C\CCCC(=O)O[C@H](CO)COP(=O)([O-])OCC[N+](C)(C)C [LPC 20:4] (ion (formula + adduct): [C28H50NO7P+H] 1+) | – | 231.1 Å² | –
CC/C=C\C/C=C\C/C=C\C/C=C\C/C=C\C/C=C\CCC(=O)OC[C@@H](COC(=O)CCCCCCC/C=C\CCCCCCCC)OC(=O)CCCCCCCCCCC/C=C\CCCCCCCC [TG 18:1_22:1_22:6] (ion (formula + adduct): [C65H110O6+NH4] 1+) | – | – | 342.5 Å²
CC/C=C\C/C=C\C/C=C\C/C=C\C/C=C\C/C=C\CCC(=O)O[C@H](COC(=O)CCC/C=C\C/C=C\C/C=C\C/C=C\CCCCC)COP(=O)([O-])OCC[N+](C)(C)C [PC 20:4_22:6] (ion (formula + adduct): [C50H80NO8P+H] 1+) | 295.5 Å² | – | –
CC/C=C\C/C=C\C/C=C\C/C=C\C/C=C\C/C=C\CCC(=O)OC[C@@H](COC(=O)CCCCCCC/C=C\CCCCCC)OC(=O)CCCCCCCCCCCCCCCCC [TG 16:1_18:0_22:6] (ion (formula + adduct): [C59H100O6+NH4] 1+) | 327.7 Å² | – | –
CCC/C=C\CCCCCCCC/C=C/[C@@H](O)[C@H](COP(=O)([O-])OCC[N+](C)(C)C)NC(=O)CCCCCCCCCCCCCCC [SM d18:2_16:0@] (ion (formula + adduct): [C39H77N2O6P+H] 1+) | 281.4 Å² | 281.3 Å² | –
CCCCCCCCCCCCCCCC(=O)OC[C@@H](COC(=O)CCCCCCCCCCCCC)OC(=O)CCCCCCCCCCCCC [TG 14:0_14:0_16:0] (ion (formula + adduct): [C47H90O6+NH4] 1+) | 301.7 Å² | 301.3 ± 0.4 Å² | –
CCCCCCCCCCCCCCCC(=O)OC[C@@H](COC(=O)CCCCCCCCCCCCC)OC(=O)CCCCCCCCCCCCCC [TG 14:0_15:0_16:0] (ion (formula + adduct): [C48H92O6+NH4] 1+) | – | 304.83 ± 0.05 Å² | 304.9 Å²
CCCCCCCCCCCCCCCCOC[C@H](COP(=O)([O-])OCC[N+](C)(C)C)OC(=O)CCCCCCCCCCCCC [PC O- 16:0@_14:0] (ion (formula + adduct): [C38H78NO7P+H] 1+) | 280.8 Å² | – | –
CCCCCCCC/C=C\CCCCCCCCCC(=O)O[C@H](COC(=O)CCCCCCC/C=C\CCCCCCCC)COC(=O)CCCCCCCCCCCCCCCCCCCC [TG 18:1_20:1_21:0] (ion (formula + adduct): [C62H116O6+NH4] 1+) | – | – | 342.9 Å²
CC/C=C\C/C=C\C/C=C\C/C=C\C/C=C\C/C=C\CCC(=O)O[C@H](CO)COP(=O)(O)OCCN [LPE 22:6] (ion (formula + adduct): [C27H44NO7P+H] 1+) | – | 217.7 Å² | –
CC/C=C\C/C=C\C/C=C\C/C=C\C/C=C\CCCC(=O)O[C@@H](CO)COC(=O)CCCCCCC/C=C\CCCCCCCC [DG 18:1_20:5_0:0] (ion (formula + adduct): [C41H68O5+NH4] 1+) | 263.8 Å² | – | –

Continued, values first:

TIMS collisional cross section (sample type: HeLa) | TIMS collisional cross section (sample type: plasma) | TIMS collisional cross section (sample type: Liver) | SMILES
– | – | 305.9 Å² | CCCCCCCC/C=C\CCCCCCCC(=O)OC[C@@H](COC(=O)CCCCCCCCCCCCC)OC(=O)CCCCCCCCCCCCC [TG 14:0_14:0_18:1] (ion (formula + adduct): [C49H92O6+NH4] 1+)
– | 303.25 ± 0.35 Å² | – | CCCCCC/C=C\CCCCCCCC(=O)O[C@@H](COC(=O)CCCCCCC/C=C\CCCCCCCC)COC(=O)CCCCCCCCCCC [TG 12:0_16:1_18:1] (ion (formula + adduct): [C49H90O6+NH4] 1+)
301.5 Å² | – | 301.9 Å² | CCCC/C=C\CCCCCCCC(=O)OC[C@H](COC(=O)CCCCCCC/C=C\CCCCCC)OC(=O)CCCCCCC/C=C\CCCCCC [TG 14:1_16:1_16:1] (ion (formula + adduct): [C49H88O6+NH4] 1+)
– | – | 309.7 Å² | CCCCC/C=C\CCCCCCCC(=O)OC[C@H](COC(=O)CCCCCCCCCCCCCCC)OC(=O)CCCCCCCCCCCCCCC [TG 15:1_16:0_16:0] (ion (formula + adduct): [C50H94O6+NH4] 1+)
280.8 Å² | – | – | CCCCCCCC/C=C\CCCCCCCCCC(=O)O[C@H](CO/C=C\CCCCCCCCCCCCCC)COP(=O)(O)OCCN [PE P- 16:0@_20:1] (ion (formula + adduct): [C41H80NO7P+H] 1+)
– | – | 270.2 Å² | CCCCC/C=C\C/C=C\C/C=C\CCCCC(=O)O[C@H](COC(=O)CCCCCCC/C=C\C/C=C\CCCCC)COP(=O)(O)OCCN [PE 18:2_18:3] (ion (formula + adduct): [C41H72NO8P+H] 1+)
270.2 Å² | – | – | CCCCC/C=C\C/C=C\C/C=C\C/C=C\CCCC(=O)OC[C@H](COP(=O)(O)OCCN)OC(=O)CCCCCCCCCCCCC [PE 20:4@_14:0] (ion (formula + adduct): [C39H70NO8P+H] 1+)
310.6 Å² | – | – | CC/C=C\C/C=C\C/C=C\C/C=C\C/C=C\CCCC(=O)OC[C@@H](COC(=O)CCCCCCCCCCCCC)OC(=O)CCCCCCC/C=C\CCCCCC [TG 14:0_16:1_20:5] (ion (formula + adduct): [C53H90O6+NH4] 1+)
302.4 Å² | – | – | CCCCC/C=C\C/C=C\CCCCCCCCCCCC(=O)O[C@H](COC(=O)CCCCCCC/C=C\CCCCCCCC)COP(=O)([O-])OCC[N+](C)(C)C [PC 18:1_22:2@] (ion (formula + adduct): [C48H90NO8P+H] 1+)
297.4 Å² | – | – | CCCC/C=C\CCCCCCCC(=O)O[C@@H](COC(=O)CCCCCCC/C=C\CCCCCC)COC(=O)CCCCCCCCCCCCC [TG 14:0_14:1_16:1] (ion (formula + adduct): [C47H86O6+NH4] 1+)
– | – | 297.5 Å² | CCCCC/C=C\C/C=C\CCCCCCCC(=O)O[C@H](COC(=O)CCCCCCCCCCCCCCCCCCC)COP(=O)([O-])OCC[N+](C)(C)C [PC 20:0_18:2] (ion (formula + adduct): [C46H88NO8P+H] 1+)
309.6 Å² | – | – | CCCC/C=C\CCCCCCCC(=O)OC[C@H](COC(=O)CCCCCCCCCCCCCCCCC)OC(=O)CCCCCCC/C=C\CCCCCC [TG 14:1_16:1_18:0] (ion (formula + adduct): [C51H94O6+NH4] 1+)
– | – | 308.7 Å² | CCCCC/C=C\CCCCCCCC(=O)OC[C@H](COC(=O)CCCCCCC/C=C\CCCCCCC)OC(=O)CCCCCCC/C=C\CCCCCC [TG 15:1_16:1_17:1] (ion (formula + adduct): [C51H92O6+NH4] 1+)
268.7 Å² | – | – | CCCCCC/C=C\CCCCCCCC(=O)OC[C@H](COP(=O)(O)OCCN)OC(=O)CCCCCCCCCCCCCCC [PE 16:1_16:0] (ion (formula + adduct): [C37H72NO8P+H] 1+)
272.2 Å² | 273.4 Å² | – | CCCCCCCCCCCCCCCCCC(=O)OCC(CO)OC(=O)CCCCCCCCCCCCCCCCC (centres undefined) [DG 18:0_18:0_0:0] (ion (formula + adduct): [C39H76O5+NH4] 1+)
314.8 Å² | – | – | CCCCCC/C=C\CCCCCCCC(=O)OC[C@H](COC(=O)CCCCCCC/C=C\CCCCCCC)OC(=O)CCCCCCC/C=C\CCCCCCC [TG 16:1_17:1_17:1] (ion (formula + adduct): [C53H96O6+NH4] 1+)
– | 295.8 Å² | 295.4 Å² | CCCCC/C=C\C/C=C\CCCCCCCC(=O)OC[C@@H](COC(=O)CCCCCCCCCCC)OC(=O)CCCCCCCCCCCCC [TG 12:0_14:0_18:2] (ion (formula + adduct): [C47H86O6+NH4] 1+)
